# Experimental data taken from paper PMC7718273 (Scientific Reports, 2020).
# Experiments:
# [1] = test system: T1, recombinant human FAP; experiment: FAP-mediated cleavage of hFGF21 in cell-free system (SDS-PAGE/immunoblot); type: biochemical; settings: hFGF21 200 nM, hFAP 50 nM, SDS-PAGE
# T1 construct: purchased R&D Systems 3715-SE
# [2] = Microsomal stability, dog; type: in vitro ADME; settings: liver microsomes, pH 7.4, dog (D), 0.5 mg/mL, NADPH, read-out: Microsomal stability (% remaining at 60 min)
# Protocol: (§1) Aliquots were then transferred in duplicate to: (i) a final concentration plate that was immediately quenched with 23.6 ng/mL internal standard (IS, chlorpropamide) in acetonitrile (ACN) or (ii) tubes, which were centrifuged for 5 min at 4℃ (14,000 rpm). The samples were subjected to LC–MS/MS analysis on an AB Sciex 4000 Q Trap hybrid triple quadrupole linear ion-trap MS (AB Sciex, Framingham, MA) coupled to an Agilent 1200 HPLC (Agilent Tech. Santa Clara, CA) with a reverse-phase Kinetex XB-C18 column (2.1 × 100 mm, 2.6 µm; Phenomenex). Mobile phases were comprised of 0.1% formic acid (FA) in water (A) and 0.1 FA in ACN (B). Data analysis was performed using […] (Ver. 1.6.1).
# [3] = Plasma stability, human; type: in vitro ADME; settings: pH 7.4, read-out: Plasma stability (% remaining at 60 min)
# Protocol: as §1
# [4] = Plasma stability, rat; type: in vitro ADME; settings: pH 7.4, rat (R), read-out: Plasma stability (% remaining at 60 min)
# Protocol: as §1
# [5] = Plasma stability, mouse; type: in vitro ADME; settings: pH 7.4, mouse (M), read-out: Plasma stability (% remaining at 60 min)
# Protocol: as §1
# [6] = Plasma protein binding, mouse; type: in vitro ADME; settings: mouse (M), read-out: Plasma protein binding (% bound) (converted)
# [7] = biological target: T2, CYP 1A2 (Homo sapiens, UniProt P05177); experiment: CYPs inhibition, human liver microsome, substrate cocktail; type: in vitro ADME; settings: 1st of 5 values; head prints H; footnote lists CYPs 1A2, 2C9, 2C19, 2D6, 3A4; read-out: CYPs inhibition (IC50, µM) (H/Mk/D/R/M)
# T2 construct: from tissue; host or cells: human liver microsomes
# T2 sequence (P05177 whole entry): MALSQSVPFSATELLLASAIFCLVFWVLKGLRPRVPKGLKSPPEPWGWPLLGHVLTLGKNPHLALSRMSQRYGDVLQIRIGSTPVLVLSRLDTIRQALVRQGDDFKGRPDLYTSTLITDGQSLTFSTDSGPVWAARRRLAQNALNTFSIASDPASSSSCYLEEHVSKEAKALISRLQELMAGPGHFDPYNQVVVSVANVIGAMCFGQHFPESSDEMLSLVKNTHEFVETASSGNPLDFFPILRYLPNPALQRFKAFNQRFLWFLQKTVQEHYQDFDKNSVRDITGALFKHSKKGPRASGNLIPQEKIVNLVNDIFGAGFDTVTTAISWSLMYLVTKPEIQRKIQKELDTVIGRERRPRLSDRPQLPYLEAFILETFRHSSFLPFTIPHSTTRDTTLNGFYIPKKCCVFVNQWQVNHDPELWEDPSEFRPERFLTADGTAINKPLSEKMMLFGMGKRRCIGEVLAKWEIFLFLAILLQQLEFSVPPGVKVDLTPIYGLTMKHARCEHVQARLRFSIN
# Excerpt: (§2) Metabolites of the substrate probes were simultaneously analyzed by multiple-reaction monitoring using routine LC-MS/MS.
# [8] = biological target: T3, CYP 2C19 (Homo sapiens, UniProt P33261); experiment: as above; type: in vitro ADME; settings: 3rd of 5 values; head prints D; footnote lists CYPs 1A2, 2C9, 2C19, 2D6, 3A4; read-out: CYPs inhibition (IC50, µM) (H/Mk/D/R/M)
# T3 construct: from tissue; host or cells: human liver microsomes
# T3 sequence (P33261 whole entry): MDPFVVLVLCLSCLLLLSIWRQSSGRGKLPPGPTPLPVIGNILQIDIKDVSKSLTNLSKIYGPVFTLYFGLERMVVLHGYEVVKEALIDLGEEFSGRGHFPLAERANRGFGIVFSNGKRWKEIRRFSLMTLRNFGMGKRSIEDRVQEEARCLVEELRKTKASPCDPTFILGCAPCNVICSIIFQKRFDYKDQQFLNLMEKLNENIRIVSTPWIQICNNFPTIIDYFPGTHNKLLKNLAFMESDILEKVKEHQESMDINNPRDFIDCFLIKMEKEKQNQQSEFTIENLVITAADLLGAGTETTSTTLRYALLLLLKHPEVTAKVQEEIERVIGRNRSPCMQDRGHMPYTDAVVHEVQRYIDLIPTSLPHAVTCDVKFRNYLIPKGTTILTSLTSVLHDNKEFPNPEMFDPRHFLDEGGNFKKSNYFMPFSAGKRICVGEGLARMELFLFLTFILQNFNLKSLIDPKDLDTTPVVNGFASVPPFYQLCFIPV
# Excerpt: as §2
# [9] = biological target: T4, CYP 2C9 (Homo sapiens, UniProt P11712); experiment: as above; type: in vitro ADME; settings: 2nd of 5 values; head prints Mk; footnote lists CYPs 1A2, 2C9, 2C19, 2D6, 3A4; read-out: CYPs inhibition (IC50, µM) (H/Mk/D/R/M)
# T4 construct: from tissue; host or cells: human liver microsomes
# T4 sequence (P11712 whole entry): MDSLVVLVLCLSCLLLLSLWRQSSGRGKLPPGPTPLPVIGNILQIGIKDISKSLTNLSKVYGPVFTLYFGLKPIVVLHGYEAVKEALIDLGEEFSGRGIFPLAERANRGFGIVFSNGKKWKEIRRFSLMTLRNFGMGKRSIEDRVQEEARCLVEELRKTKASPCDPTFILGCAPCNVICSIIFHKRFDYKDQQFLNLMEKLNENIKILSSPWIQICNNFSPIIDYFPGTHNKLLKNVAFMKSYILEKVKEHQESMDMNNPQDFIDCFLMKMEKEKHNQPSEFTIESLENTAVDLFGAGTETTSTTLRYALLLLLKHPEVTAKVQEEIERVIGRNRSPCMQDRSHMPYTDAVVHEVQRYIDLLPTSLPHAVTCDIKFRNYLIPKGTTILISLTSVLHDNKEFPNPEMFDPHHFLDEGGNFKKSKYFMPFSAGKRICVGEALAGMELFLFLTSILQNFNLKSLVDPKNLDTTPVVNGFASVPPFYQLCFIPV
# Excerpt: as §2
# [10] = biological target: T5, CYP 2D6 (Homo sapiens, UniProt P10635); experiment: as above; type: in vitro ADME; settings: 4th of 5 values; head prints R; footnote lists CYPs 1A2, 2C9, 2C19, 2D6, 3A4; read-out: CYPs inhibition (IC50, µM) (H/Mk/D/R/M)
# T5 construct: from tissue; host or cells: human liver microsomes
# T5 sequence (P10635 whole entry): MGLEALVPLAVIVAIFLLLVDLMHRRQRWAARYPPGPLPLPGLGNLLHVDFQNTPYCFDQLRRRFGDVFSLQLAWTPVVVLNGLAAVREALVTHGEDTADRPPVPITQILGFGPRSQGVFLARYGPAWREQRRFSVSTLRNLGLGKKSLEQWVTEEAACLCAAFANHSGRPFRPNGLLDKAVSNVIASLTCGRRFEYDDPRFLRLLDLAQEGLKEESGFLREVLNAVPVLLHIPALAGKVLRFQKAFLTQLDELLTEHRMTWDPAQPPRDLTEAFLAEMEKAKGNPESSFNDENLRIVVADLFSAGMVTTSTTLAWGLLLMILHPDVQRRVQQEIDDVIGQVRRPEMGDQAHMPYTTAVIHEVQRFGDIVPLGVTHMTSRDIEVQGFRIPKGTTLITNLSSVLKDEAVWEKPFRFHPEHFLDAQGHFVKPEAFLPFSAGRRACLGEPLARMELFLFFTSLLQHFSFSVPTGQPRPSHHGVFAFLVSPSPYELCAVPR
# Excerpt: as §2
# [11] = biological target: T6, CYP 3A4 (Homo sapiens, UniProt P08684); experiment: as above; type: in vitro ADME; settings: 5th of 5 values; head prints M; footnote lists CYPs 1A2, 2C9, 2C19, 2D6, 3A4; read-out: CYPs inhibition (IC50, µM) (H/Mk/D/R/M)
# T6 construct: from tissue; host or cells: human liver microsomes
# T6 sequence (P08684 whole entry): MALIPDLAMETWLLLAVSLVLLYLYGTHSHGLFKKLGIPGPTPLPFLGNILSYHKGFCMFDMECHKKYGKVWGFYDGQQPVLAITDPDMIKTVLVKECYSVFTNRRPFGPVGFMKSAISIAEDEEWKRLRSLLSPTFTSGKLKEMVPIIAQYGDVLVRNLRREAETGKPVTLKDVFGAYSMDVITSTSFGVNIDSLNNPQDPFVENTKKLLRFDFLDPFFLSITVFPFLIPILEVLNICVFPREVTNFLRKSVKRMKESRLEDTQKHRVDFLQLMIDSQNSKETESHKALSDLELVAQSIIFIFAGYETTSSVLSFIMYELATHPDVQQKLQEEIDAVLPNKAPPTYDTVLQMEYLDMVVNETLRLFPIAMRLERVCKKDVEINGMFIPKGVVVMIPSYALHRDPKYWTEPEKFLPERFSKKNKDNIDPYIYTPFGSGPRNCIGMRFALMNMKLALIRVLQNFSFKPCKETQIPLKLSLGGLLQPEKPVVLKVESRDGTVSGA
# Excerpt: as §2
# [12] = Kinetic solubility; type: physicochemical; settings: 22 °C, kinetic from dmso stock
# Protocol: Kinetic solubility was conducted as described. […] The samples were agitated for 2 h using a plate shaker (500 rpm, 22℃). Approximately 150 µL of the resulting supernatant was transferred to a 96-well analysis plate and the calibration and test samples were analyzed by HPLC with a diode array detector (Agilent 1200 HPLC) comprising a reverse-phase Kinetex XB-C18 column (2.1 × 100 mm, 2.6 µm; Phenomenex). Mobile phases were composed of 0.1% FA in water (A) and 0.1% FA in ACN (B).
# [13] = test system: CDAHFD NASH mouse model; experiment: In vivo study using CDAHFD mice (NASH model); parameters: species or system C57BL/6J mice
# Protocol: C57BL/6J mice were fed normal chow diet (n = 5) or choline-deficient, L-amino acid-defined, high-fat diet (CDAHFD) for 4 weeks to induce NASH (n = 8–10/group). […] (a) Relative FAP activity was assessed by FRET-quench and serum FGF21 level at week 14. […] (c) Steatosis scores ranged from 0 to 3 (normal = 0, minimal = 1, moderate = 2, marked = 3) were determined. Hepatic steatosis and fibrosis (Picrosirius red stain) were analyzed in a blinded manner or by digital image analyzer. (d–e) Histological evaluations of liver tissue were performed in each group. Paraffin-embedded liver sections were stained with H&E (d) and Sirius red (e). Representative photographs of each group were presented. Images were obtained at 100x (Scale bar = 50 µm).
# Male C57BL/6J mice (5 weeks of age) were fed with a CDAHFD consisting of 60% kcal fat and 0.1% methionine. […] For the CDAHFD model, compound treatments were started at the beginning of week 4 on the diet and continued until week 14. […] Liver tissue was then collected. All other measurements were done similarly as described above. Staining was performed using H&E and Picrosirius red as described previously. Areas of positive Sirius red were quantified by computer-based morphometric analysis.
# [14] = test system: ob/ob mice; experiment: Acute study using ob/ob mice: blood glucose and intact hFGF21; settings: for nonfasting blood glucose level, average: 3 h after administration
# Protocol: Blood was collected at the indicated time points. (a) Nonfasting blood glucose levels were measured at the indicated time points. […] (c) Plasma intact hFGF21 levels were measured using ELISA kit at 1, 3, 6, and 9 h. All data are the means ± S.D. *P < 0.05, **P < 0.01 and *** P < 0.001 vs. vehicle group.
# Blood was promptly collected by orbital bleeding that was allowed to clot, and supernatant was collected after centrifugation at 4 °C at 3000 rpm. Serum intact FGF21 concentrations were measured by intact hFGF21 ELISA (Alpco, Keewaydin Dr, Salem, NH, catalog no. 43-FGFHU-E01)[29].
# [15] = 10 and 30 mg/kg, week 14, vs vehicle
smiles,measurement,setting,value
"N#Cc1ccc(Cc2nc(C(=O)NCC(=O)N3CC(F)(F)C[C@H]3C#N)cs2)cc1 [BR103354, (S)-N-(2-(2-cyano-4,4-difluoropyrrolidin-1-yl)-2-oxoethyl)-2-(4-cyanobenzyl)thiazole-4-carboxamide]",concentration from which FAP-mediated hFGF21 cleavage was inhibited,[1],0.4 µM
same,"remaining at 1 h, 1 µM",[2],> 100%
same,"remaining at 1 h, 1 µM",[3],> 100%
same,"remaining at 1 h, 1 µM",[4],79%
same,"remaining at 1 h, 1 µM",[5],94%
same,fraction unbound at 1 µg/mL,[6],0.22
same,IC50,[7],> 50 µM
same,IC50,[8],> 50 µM
same,IC50,[9],> 50 µM
same,IC50,[10],> 50 µM
same,IC50,[11],> 50 µM
same,solubility kinetic at 2 h,"[12]; pH 3.5, aqueous buffer",81 µg/mL
same,solubility kinetic at 2 h,"[12]; simulated gastric fluid, pH 1.0",79 µg/mL
same,solubility kinetic at 2 h,"[12]; phosphate buffer, pH 7.4, aqueous buffer",78 µg/mL
same,liver fibrosis (Picrosirius red staining),[13]; 10 and 30 mg/kg,significant reduction
same,increase of serum FGF21 levels,[13]; 10 and 30 mg/kg p.o. for 10 weeks,1.5–1.9 folds
same,Steatosis scores,"[13]; 10 and 30 mg/kg, score 0 to 3",significant reduction
same,TG,[13]; [15],reduced
same,blood ALT levels,[13]; [15],reduced
same,blood AST levels,[13]; [15],reduced
same,glucose levels,[13]; [15],reduced
same,total cholesterol,[13]; [15],reduced
same,"nonfasting blood glucose level, average",[14]; 20 mg/kg p.o. + hFGF21 0.1 mg/kg i.p.,178 mg/dL
same,"nonfasting blood glucose level, average",[14]; 50 mg/kg p.o. + hFGF21 0.1 mg/kg i.p.,154 mg/dL
same,decrease of blood glucose AUC,[14]; 20 or 50 mg/kg p.o. + hFGF21 0.1 mg/kg i.p.,40–45%
same,levels of intact FGF21 in plasma,"[14]; co-administered with hFGF21 0.1 mg/kg, until 3 h",increased levels of intact FGF21 in plasma until 3 h
same,levels of intact FGF21,"[14]; co-administered with hFGF21, after 6 h of administration",lower than 10 ng/mL
